From a compilation of properties of binary mixtures (doi:10.1016/j.jct.2020.106093)

Assay: xn = mol fraction of the nth substance listed
Details: 100.9 kPa

CC(=O)[O-].CC[NH2+]CC + O
Details	electrical conductivity [S/m]	speed of sound [m/s]	viscosity [mPa·s]
313.15 K, x1 = 0.351	–	–	19.49
313.15 K, x1 = 0.708	–	1494	–
313.15 K, x1 = 0.714	–	–	33.5
313.15 K, x1 = 0.835	–	1461	–
313.15 K, x1 = 0.84	–	–	34
315.65 K, x1 = 0.015	–	–	0.904
315.65 K, x1 = 0.055	–	–	1.89
315.65 K, x1 = 0.24	–	–	11.59
315.65 K, x1 = 0.351	–	–	17.57
315.65 K, x1 = 0.549	–	–	26.3
315.65 K, x1 = 0.84	–	–	30.6
318.15 K, x1 = 0.015	4.74	1608	0.862
318.15 K, x1 = 0.054	8.13	–	–
318.15 K, x1 = 0.055	–	1732	1.774
318.15 K, x1 = 0.119	–	1782	3.94
318.15 K, x1 = 0.12	5.91	–	–
318.15 K, x1 = 0.168	4.05	1758	6.11
318.15 K, x1 = 0.24	2.51	1699	10.54
318.15 K, x1 = 0.35	–	1636	–
318.15 K, x1 = 0.351	–	–	15.87
318.15 K, x1 = 0.549	–	1526	23.7
318.15 K, x1 = 0.55	0.767	–	–
318.15 K, x1 = 0.708	–	1479	–
318.15 K, x1 = 0.714	0.609	–	27.2
318.15 K, x1 = 0.835	–	1446	–
318.15 K, x1 = 0.838	0.498	–	–
318.15 K, x1 = 0.84	–	–	27.6
318.15 K, x1 = 0.945	0.476	–	–
320.65 K, x1 = 0.015	–	–	0.826
320.65 K, x1 = 0.055	–	–	1.67
320.65 K, x1 = 0.119	–	–	3.65
320.65 K, x1 = 0.168	–	–	5.63
320.65 K, x1 = 0.24	–	–	9.62
320.65 K, x1 = 0.351	–	–	14.41
320.65 K, x1 = 0.549	–	–	21.5
320.65 K, x1 = 0.714	–	–	24.6
320.65 K, x1 = 0.84	–	–	25
323.15 K, x1 = 0.015	–	1610	0.795
323.15 K, x1 = 0.055	–	1725	1.576
323.15 K, x1 = 0.119	–	1768	3.4
323.15 K, x1 = 0.168	–	1744	5.21
323.15 K, x1 = 0.24	–	1685	8.81
323.15 K, x1 = 0.35	–	1622	–
323.15 K, x1 = 0.351	–	–	13.12
323.15 K, x1 = 0.549	–	1512	19.55
323.15 K, x1 = 0.708	–	1464	–
323.15 K, x1 = 0.714	–	–	22.3
323.15 K, x1 = 0.835	–	1430	–
323.15 K, x1 = 0.84	–	–	22.7
325.65 K, x1 = 0.015	–	–	0.757
325.65 K, x1 = 0.055	–	–	1.489
325.65 K, x1 = 0.119	–	–	3.17
325.65 K, x1 = 0.168	–	–	4.82
325.65 K, x1 = 0.24	–	–	8.09
325.65 K, x1 = 0.351	–	–	11.97
325.65 K, x1 = 0.549	–	–	17.76
325.65 K, x1 = 0.714	–	–	20.3
325.65 K, x1 = 0.84	–	–	20.6
328.15 K, x1 = 0.055	–	–	1.411
328.15 K, x1 = 0.119	–	–	2.97
328.15 K, x1 = 0.168	–	–	4.48
328.15 K, x1 = 0.24	–	–	7.45
328.15 K, x1 = 0.351	–	–	10.96
328.15 K, x1 = 0.714	–	–	18.53
328.15 K, x1 = 0.84	–	–	18.78
330.65 K, x1 = 0.24	–	–	6.88
330.65 K, x1 = 0.351	–	–	10.06
330.65 K, x1 = 0.549	–	–	14.78
330.65 K, x1 = 0.714	–	–	16.94
330.65 K, x1 = 0.84	–	–	17.14
333.15 K, x1 = 0.015	7.37	–	0.666
333.15 K, x1 = 0.054	13.1	–	–
333.15 K, x1 = 0.055	–	–	1.273
333.15 K, x1 = 0.12	8.77	–	–
333.15 K, x1 = 0.168	5.75	–	3.89
333.15 K, x1 = 0.24	3.65	–	6.37
333.15 K, x1 = 0.353	2	–	–
333.15 K, x1 = 0.549	–	–	13.57
333.15 K, x1 = 0.714	0.802	–	15.52
333.15 K, x1 = 0.838	0.666	–	–
333.15 K, x1 = 0.945	0.65	–	–
335.65 K, x1 = 0.015	–	–	0.641
335.65 K, x1 = 0.055	–	–	1.213
335.65 K, x1 = 0.119	–	–	2.45
335.65 K, x1 = 0.24	–	–	5.91
335.65 K, x1 = 0.351	–	–	8.55
335.65 K, x1 = 0.549	–	–	12.48
335.65 K, x1 = 0.714	–	–	14.25
335.65 K, x1 = 0.84	–	–	14.39
338.15 K, x1 = 0.015	–	–	0.617
338.15 K, x1 = 0.055	–	–	1.159
338.15 K, x1 = 0.119	–	–	2.31
338.15 K, x1 = 0.168	–	–	3.4
338.15 K, x1 = 0.24	–	–	5.49
338.15 K, x1 = 0.351	–	–	7.91
338.15 K, x1 = 0.549	–	–	11.5
338.15 K, x1 = 0.714	–	–	13.11
338.15 K, x1 = 0.84	–	–	13.23
340.65 K, x1 = 0.015	–	–	0.595
340.65 K, x1 = 0.055	–	–	1.108
340.65 K, x1 = 0.119	–	–	2.18
340.65 K, x1 = 0.24	–	–	5.12
340.65 K, x1 = 0.351	–	–	7.33
340.65 K, x1 = 0.549	–	–	10.62
340.65 K, x1 = 0.714	–	–	12.08
340.65 K, x1 = 0.84	–	–	12.19
343.15 K, x1 = 0.015	–	–	0.574
343.15 K, x1 = 0.119	–	–	2.06
343.15 K, x1 = 0.168	–	–	3
343.15 K, x1 = 0.24	–	–	4.78
343.15 K, x1 = 0.351	–	–	6.81
343.15 K, x1 = 0.549	–	–	9.84
343.15 K, x1 = 0.714	–	–	11.16
343.15 K, x1 = 0.84	–	–	11.24
348.15 K, x1 = 0.007	3.01	–	–
348.15 K, x1 = 0.015	10.1	–	–
348.15 K, x1 = 0.054	16.6	–	–
348.15 K, x1 = 0.12	10.6	–	–
348.15 K, x1 = 0.168	7.47	–	–
348.15 K, x1 = 0.24	4.92	–	–
348.15 K, x1 = 0.945	1.09	–	–
363.15 K, x1 = 0.007	3.4	–	–
363.15 K, x1 = 0.015	12.9	–	–
363.15 K, x1 = 0.054	17.4	–	–
363.15 K, x1 = 0.12	11.6	–	–
363.15 K, x1 = 0.24	5.47	–	–
363.15 K, x1 = 0.353	3.65	–	–
363.15 K, x1 = 0.55	2.24	–	–
363.15 K, x1 = 0.714	1.67	–	–
363.15 K, x1 = 0.838	1.32	–	–
